Measurements reported in patent US20260271933A1 (priority 2023, published 2026).

Key:
Plasmopara viticola = assay: whole plant or invertebrate; type: in vivo; details: foliar
Pythium ultimum = Pythium ultimum / liquid culture (seedling damping off); type: cell-based; details: Globisporangium ultimum, growth inhibition determined photometrically, compared to untreated control
Experimental: Pythium ultimum/Liquid Culture (Seedling Damping Off)
Mycelia fragments and oospores of a newly grown liquid culture of the fungus are directly mixed into nutrient broth (PDB potato dextrose broth). After placing a (DMSO) solution of test compound into a microtiter plate (96-well format), the nutrient broth containing the fungal mycelia/spore mixture is added.
The test plates are incubated at 24° C. and the inhibition of growth is determined photometrically 2-3 days after application.

Phytophthora infestans = assay: whole plant or invertebrate; type: in vivo; details: in Solanum lycopersicum, foliar, read-out: control of Phytophthora infestans

Compound	pest or weed control at 200 ppm (Plasmopara viticola)	inhibition of growth at 20 ppm (Pythium ultimum)	pest or weed control at 200 ppm (Phytophthora infestans)
COC(=O)Nc1ccc(-c2cnc3c(C)cc(C(=O)N(C)c4cccc5c4OCC5)cn23)cn1 [Compound 1, methyl N-[5-[6-[2,3-dihydrobenzofuran-7-yl(methyl)carbamoyl]-8-methyl-imidazo[1,2-a]pyridin-3-yl]-2-pyridyl]carbamate]	≥ 80%		
COC(=O)Nc1ccc(-c2cnc3ccc(C(=O)N(C)c4cccc5c4OCC5)cn23)cn1 [Compound 4, methyl N-[5-[6-[2,3-dihydrobenzofuran-7-yl(methyl)carbamoyl]imidazo[1,2-a]pyridin-3-yl]-2-pyridyl]carbamate]	≥ 80%	≥ 80%	
COC(=O)Nc1ccc(-c2cnc3c(C)cc(C(=O)N4CCOc5cc(F)ccc54)cn23)cn1 [Compound 5, methyl N-[5-[6-(7-fluoro-2,3-dihydro-1,4-benzoxazine-4-carbonyl)-8-methyl-imidazo[1,2-a]pyridin-3-yl]-2-pyridyl]carbamate]		≥ 80%	≥ 80%
COC(=O)Nc1ccc(-c2cnc3ccc(C(=O)N4CCCc5c(C(=O)OC)cccc54)cn23)cn1 [Compound 7, methyl 1-[3-[6-(methoxycarbonylamino)-3-pyridyl]imidazo[1,2-a]pyridine-6-carbonyl]-3,4-dihydro-2H-quinoline-5-carboxylate]	≥ 80%	≥ 80%	
COC(=O)Nc1ccc(-c2cnc3ccc(C(=O)N4CC(C)Cc5ccccc54)cn23)cn1 (stereo not shown) [Compound 8, methyl N-[5-[6-(3-methyl-3,4-dihydro-2H-quinoline-1-carbonyl)imidazo[1,2-a]pyridin-3-yl]-2-pyridyl]carbamate]		≥ 80%	
COC(=O)Nc1ccc(-c2cnc3ccc(C(=O)N(C)c4cccc(F)c4OC)cn23)cn1 [Compound 12, methyl N-[5-[6-[(3-fluoro-2-methoxy-phenyl)-methyl-carbamoyl]imidazo[1,2-a]pyridin-3-yl]-2-pyridyl]carbamate]		≥ 80%	≥ 80%
COC(=O)Nc1ccc(-c2cnc3ccc(C(=O)N4CCCc5c(F)cccc54)cn23)cn1 [Compound 13, methyl N-[5-[6-(5-fluoro-3,4-dihydro-2H-quinoline-1-carbonyl)imidazo[1,2-a]pyridin-3-yl]-2-pyridyl]carbamate]		≥ 80%	
COC(=O)Nc1ccc(-c2cnc3ccc(C(=O)N4c5ccccc5CCC4C)cn23)cn1 (stereo not shown) [Compound 14, methyl N-[5-[6-(2-methyl-3,4-dihydro-2H-quinoline-1-carbonyl)imidazo[1,2-a]pyridin-3-yl]-2-pyridyl]carbamate]		≥ 80%	
COC(=O)Nc1ccc(-c2cnc3ccc(C(=O)N4CCCc5cc(Cl)cc(F)c54)cn23)cn1 [Compound 17, methyl N-[5-[6-(6-chloro-8-fluoro-3,4-dihydro-2H-quinoline-1-carbonyl)imidazo[1,2-a]pyridin-3-yl]-2-pyridyl]carbamate]		≥ 80%	≥ 80%
COC(=O)Nc1ccc(-c2cnc3ccc(C(=O)N4CC(O)Cc5cc(F)ccc54)cn23)cn1 (stereo not shown) [Compound 24, methyl N-[5-[6-(6-fluoro-3-hydroxy-3,4-dihydro-2H-quinoline-1-carbonyl)imidazo[1,2-a]pyridin-3-yl]-2-pyridyl]carbamate]		≥ 80%	≥ 80%
COC(=O)Nc1ccc(-c2cnc3ccc(C(=O)N4CCCc5cc(F)c(F)cc54)cn23)cn1 [Compound 26, methyl N-[5-[6-(6,7-difluoro-3,4-dihydro-2H-quinoline-1-carbonyl)imidazo[1,2-a]pyridin-3-yl]-2-pyridyl]carbamate]		≥ 80%	
COC(=O)Nc1ccc(-c2cnc3ccc(C(=O)N4CCCc5c(C)cccc54)cn23)cn1 [Compound 27, methyl N-[5-[6-(5-methyl-3,4-dihydro-2H-quinoline-1-carbonyl)imidazo[1,2-a]pyridin-3-yl]-2-pyridyl]carbamate]		≥ 80%	≥ 80%
COC(=O)Nc1ccc(-c2cnc3ccc(C(=O)N4CCCc5c4ccc(C)c5F)cn23)cn1 [Compound 28, methyl N-[5-[6-(5-fluoro-6-methyl-3,4-dihydro-2H-quinoline-1-carbonyl)imidazo[1,2-a]pyridin-3-yl]-2-pyridyl]carbamate]		≥ 80%	
COC(=O)Nc1ccc(-c2cnc3ccc(C(=O)N4CC(OC)Cc5ccccc54)cn23)cn1 (stereo not shown) [Compound 32, methyl N-[5-[6-(3-methoxy-3,4-dihydro-2H-quinoline-1-carbonyl)imidazo[1,2-a]pyridin-3-yl]-2-pyridyl]carbamate]		≥ 80%	≥ 80%
COC(=O)Nc1ccc(-c2cnc3ccc(C(=O)N(C)c4cccc(Cl)c4Cl)cn23)cn1 [Compound 39, methyl N-[5-[6-[(2,3-dichlorophenyl)-methyl-carbamoyl]imidazo[1,2-a]pyridin-3-yl]-2-pyridyl]carbamate]	≥ 80%		
COC(=O)Nc1ccc(-c2cnc3ccc(C(=O)N4CC(O)Cc5ccccc54)cn23)cn1 (stereo not shown) [Compound 43, methyl N-[5-[6-(3-hydroxy-3,4-dihydro-2H-quinoline-1-carbonyl)imidazo[1,2-a]pyridin-3-yl]-2-pyridyl]carbamate]		≥ 80%	≥ 80%
COC(=O)Nc1ccc(-c2cnc3ccc(C(=O)N(C)c4ccccc4C(=O)OC)cn23)cn1 [Compound 46, methyl 2-[[3-[6-(methoxycarbonylamino)-3-pyridyl]imidazo[1,2-a]pyridine-6-carbonyl]-methyl-amino]benzoate]		≥ 80%	≥ 80%
COC(=O)Nc1ccc(-c2cnc3ccc(C(=O)N(C)c4cc(Cl)ccc4C)cn23)cn1 [Compound 47, methyl N-[5-[6-[(5-chloro-2-methyl-phenyl)-methyl-carbamoyl]imidazo[1,2-a]pyridin-3-yl]-2-pyridyl]carbamate]		≥ 80%	
COC(=O)Nc1ccc(-c2cnc3ccc(C(=O)N4CCCc5cc(Cl)ccc54)cn23)cn1 [Compound 48, methyl N-[5-[6-(6-chloro-3,4-dihydro-2H-quinoline-1-carbonyl)imidazo[1,2-a]pyridin-3-yl]-2-pyridyl]carbamate]		≥ 80%	
COC(=O)Nc1ccc(-c2cnc3ccc(C(=O)N(C)c4ccc(Cl)cc4F)cn23)cn1 [Compound 53, methyl N-[5-[6-[(4-chloro-2-fluoro-phenyl)-methyl-carbamoyl]imidazo[1,2-a]pyridin-3-yl]-2-pyridyl]carbamate]		≥ 80%	
COC(=O)Nc1ccc(-c2cnc3ccc(C(=O)N(C)c4cc(F)ccc4F)cn23)cn1 [Compound 54, methyl N-[5-[6-[(2,5-difluorophenyl)-methyl-carbamoyl]imidazo[1,2-a]pyridin-3-yl]-2-pyridyl]carbamate]		≥ 80%	≥ 80%
COC(=O)Nc1ccc(-c2cnc3ccc(C(=O)N4CCCc5ccc(OC)cc54)cn23)cn1 [Compound 56, methyl N-[5-[6-(7-methoxy-3,4-dihydro-2H-quinoline-1-carbonyl)imidazo[1,2-a]pyridin-3-yl]-2-pyridyl]carbamate]		≥ 80%	
COC(=O)Nc1ccc(-c2cnc3ccc(C(=O)N4CCCc5c(OC(F)F)cccc54)cn23)cn1 [Compound 58, methyl N-[5-[6-[5-(difluoromethoxy)-3,4-dihydro-2H-quinoline-1-carbonyl]imidazo[1,2-a]pyridin-3-yl]-2-pyridyl]carbamate]		≥ 80%	
CCN(C(=O)c1ccc2ncc(-c3ccc(NC(=O)OC)nc3)n2c1)c1ccccc1C(=O)OC [Compound 59, methyl 2-[ethyl-[3-[6-(methoxycarbonylamino)-3-pyridyl]imidazo[1,2-a]pyridine-6-carbonyl]amino]benzoate]			≥ 80%
COC(=O)Nc1ccc(-c2cnc3ccc(C(=O)N(C)c4ccccc4OC)cn23)cn1 [Compound 60, methyl N-[5-[6-[(2-methoxyphenyl)-methyl-carbamoyl]imidazo[1,2-a]pyridin-3-yl]-2-pyridyl]carbamate]		≥ 80%	
COC(=O)Nc1ccc(-c2cnc3ccc(C(=O)N(C)c4cc(Cl)ccc4OC)cn23)cn1 [Compound 61, methyl N-[5-[6-[(5-chloro-2-methoxy-phenyl)-methyl-carbamoyl]imidazo[1,2-a]pyridin-3-yl]-2-pyridyl]carbamate]		≥ 80%	
COC(=O)Nc1ccc(-c2cnc3ccc(C(=O)N4CCCc5c4ccc(F)c5OC)cn23)cn1 [Compound 62, methyl N-[5-[6-(6-fluoro-5-methoxy-3,4-dihydro-2H-quinoline-1-carbonyl)imidazo[1,2-a]pyridin-3-yl]-2-pyridyl]carbamate]		≥ 80%	≥ 80%
COC(=O)Nc1ccc(-c2cnc3ccc(C(=O)N4CCCc5cc(OC)c(F)cc54)cn23)cn1 [Compound 63, methyl N-[5-[6-(7-fluoro-6-methoxy-3,4-dihydro-2H-quinoline-1-carbonyl)imidazo[1,2-a]pyridin-3-yl]-2-pyridyl]carbamate]		≥ 80%	
COC(=O)Nc1ccc(-c2cnc3ccc(C(=O)N(C)c4ccc(Cl)cn4)cn23)cn1 [Compound 68, methyl N-[5-[6-[(5-chloro-2-pyridyl)-methyl-carbamoyl]imidazo[1,2-a]pyridin-3-yl]-2-pyridyl]carbamate]		≥ 80%	
COC(=O)Nc1ccc(-c2cnc3ccc(C(=O)N(C)c4ccc(F)cc4F)cn23)cc1 [Compound 78, methyl N-[4-[6-[(2,4-difluorophenyl)-methyl-carbamoyl]imidazo[1,2-a]pyridin-3-yl]phenyl]carbamate]	≥ 80%	≥ 80%	
